# Test results as given in patent publication US20090258947A1 (priority 2006, published 2009).
# Like-named read-outs stand apart in the source and are kept apart here. Marks after values point to notes of the source that are not given here.
# How the values were obtained:
# [1] = cited from earlier work
# [2] = test system: 1% acetic acid induced writhing in mice; settings: for No. of writhes: 20-minute session, mean ± S.E.M., N = 6
# Protocol: (§1) Male Swiss mice (18-22 g) were selected for the study comprising 6 animals in each group. The dose volume was 0.1 ml/10 g body weight of mice and the route of administration was per oral (p.o.). Two tests were performed for the purpose. […] One hour later, a 1% acetic acid solution (10 ml/kg, i.p.) was used to produce writhing in mice. The numbers of writhes {constriction of abdomen, turning of trunk (twist), and extension of hind limbs} due to acetic acid were expressed as painful response. The numbers of writhes per animal were counted during a 20-minute session, beginning 3 minutes after the acetic acid injection. In second test i.e. Tail flick test, the mouse tail was placed on the radiant heat produced by the tail flick apparatus and the individual animal tail flick response was noted (a trail of three was carried out). Animals having a latency to tail withdrawal from the radiant heat source (3-5 s) were selected for the study. […] 1, 2, 4, 5 hours later, the tail flick latency were noted and the change in latency and % maximum protective effect (% MPE) was calculated. A cut off time of 10 seconds was used to prevent any injury to the tail. The changes in tail flick latency and the number of writhes are expressed as mean±S.E.M. The treatment values were compared with the control values for a particular hour using One-Way Analysis of Variance followed by Dunnett's or Bonferroni's multiple comparison test. Values of p<0.05 were considered as statistically significant.
# [3] = test system: tail flick latency to radiant heat in mice; settings: for % MPE at hour (h) / Tail flick latency(s) at hour (h): mean ± S.E.M., N = 6
# Protocol: as §1
# [4] = test system: carrageenan induced paw edema in Wistar rats; settings: for Change in volume (ml) at hour (h): mean ± S.E.M., n = 6
# Protocol: Male Wistar rats (180-250 g) were selected for the study comprising 6 animals in each group for the duration of study of 1 day. The vehicle used was (0.5% CMC in 0.1% Tween®80) and the route of administration was peroral (p.o.). […] One hour later 0.1 ml of 1% carrageenan was administered s.c. to the right hind paw of the rat. The degree of inflammation was measured by using digital plethosmometer (Cat. No. 7140, Ugo Basile, Italy) at 0 (initial), 0.5, 1, 2, 3 and 5 hours (h) post carrageenan injection and the values were recorded. For each hour, at least 2-3 values of the dipped paw were obtained and later averaged. The increase in the paw volume (ml) was calculated by subtracting the values obtained at the n^th from the 0 hour and percentage of activity was also calculated. The changes in paw edema (ml) values were expressed as mean±S.E.M. The treatment values were compared with the control values for a particular hour using One-Way Analysis of Variance followed by Dunnett's multiple comparison test. Values of p<0.05 were considered as statistically significant.
structure (smiles),measurement,setting,value
"CS(=O)(=O)Nc1ccc([N+](=O)[O-])cc1Oc1ccccc1 [Nimesulide, 4-nitro-2-phenoxymethane-sulfonanilide]","Time to reach peak concentration (tmax), mean",[1]; after 100 mg,2.50 h
same,"Time to reach peak concentration (tmax), mean",[1]; after 200 mg dose,3.17 h
same,% protection,[2]; 0.03 mg/kg p.o.,28%
same,No. of writhes,[2]; 0.03 mg/kg p.o.,23.17 ± 3.38
same,% protection,[2]; 0.1 mg/kg p.o.,39%
same,No. of writhes,[2]; 0.1 mg/kg p.o.,19.67 ± 2.73
same,No. of writhes,[2]; 0.3 mg/kg p.o.,15.50 ± 1.88
same,% protection,[2]; 1.0 mg/kg p.o.,75%
same,No. of writhes,[2]; 1.0 mg/kg p.o.,8.00 ± 1.15
same,reduction in number of writhes (dose dependence),"[2]; doses 0.03, 0.1, 0.3 and 1 ml/kg, 1% acetic acid",dose dependant reduction in number of writhes
same,reduction in number of writhing (significance),"[2]; doses 0.1, 0.3 and 1 mg/kg",statistically significant reduction in number of writhing
same,% MPE at hour (h),"[3]; 0.1 mg/kg p.o., 1 h",137.0 ± 37.1 %
same,Tail flick latency(s) at hour (h),"[3]; 0.1 mg/kg p.o., 1 h",3.00 ± 0.58 s
same,% MPE at hour (h),"[3]; 0.1 mg/kg p.o., 2 h",251.0 ± 59.9 %
same,Tail flick latency(s) at hour (h),"[3]; 0.1 mg/kg p.o., 2 h",5.50 ± 0.18 s
same,% MPE at hour (h),"[3]; 0.1 mg/kg p.o., 3 h",279.0 ± 49.4 %
same,Tail flick latency(s) at hour (h),"[3]; 0.1 mg/kg p.o., 3 h",6.17 ± 0.33 s
same,% MPE at hour (h),"[3]; 0.1 mg/kg p.o., 5 h",28.0 ± 6.1 %
same,Tail flick latency(s) at hour (h),"[3]; 0.1 mg/kg p.o., 5 h",1.42 ± 0.35 s
same,% MPE at hour (h),"[3]; 0.3 mg/kg p.o., 1 h",114.0 ± 16.8 %
same,Tail flick latency(s) at hour (h),"[3]; 0.3 mg/kg p.o., 1 h",3.17 ± 0.51 s
same,% MPE at hour (h),"[3]; 0.3 mg/kg p.o., 2 h",193.0 ± 9.5 %
same,Tail flick latency(s) at hour (h),"[3]; 0.3 mg/kg p.o., 2 h",5.33 ± 0.38 s
same,% MPE at hour (h),"[3]; 0.3 mg/kg p.o., 3 h",209.0 ± 4.3 %
same,Tail flick latency(s) at hour (h),"[3]; 0.3 mg/kg p.o., 3 h",5.75 ± 0.21 s
same,% MPE at hour (h),"[3]; 0.3 mg/kg p.o., 5 h",54.0 ± 6.6 %
same,Tail flick latency(s) at hour (h),"[3]; 0.3 mg/kg p.o., 5 h",3.08 ± 0.27 s
same,% MPE at hour (h),"[3]; 1.0 mg/kg p.o., 1 h",112.0 ± 22.5 %
same,Tail flick latency(s) at hour (h),"[3]; 1.0 mg/kg p.o., 1 h",3.17 ± 0.67 s
same,% MPE at hour (h),"[3]; 1.0 mg/kg p.o., 2 h",187.0 ± 11.9 %
same,Tail flick latency(s) at hour (h),"[3]; 1.0 mg/kg p.o., 2 h",5.25 ± 0.25 s
same,% MPE at hour (h),"[3]; 1.0 mg/kg p.o., 3 h",187.0 ± 12.0 %
same,Tail flick latency(s) at hour (h),"[3]; 1.0 mg/kg p.o., 3 h",5.25 ± 0.28 s
same,% MPE at hour (h),"[3]; 1.0 mg/kg p.o., 5 h",38.0 ± 6.1 %
same,Tail flick latency(s) at hour (h),"[3]; 1.0 mg/kg p.o., 5 h",2.17 ± 0.28 s
same,% MPE at hour (h),"[3]; 3.0 mg/kg p.o., 1 h",205.0 ± 32.9 %
same,Tail flick latency(s) at hour (h),"[3]; 3.0 mg/kg p.o., 1 h",5.17 ± 0.73 s
same,% MPE at hour (h),"[3]; 3.0 mg/kg p.o., 2 h",250.0 ± 21.9 %
same,Tail flick latency(s) at hour (h),"[3]; 3.0 mg/kg p.o., 2 h",6.33 ± 0.33 s
same,% MPE at hour (h),"[3]; 3.0 mg/kg p.o., 3 h",248.0 ± 20.4 %
same,Tail flick latency(s) at hour (h),"[3]; 3.0 mg/kg p.o., 3 h",6.25 ± 0.21 s
same,% MPE at hour (h),"[3]; 3.0 mg/kg p.o., 5 h",70.0 ± 9.5 %
same,Tail flick latency(s) at hour (h),"[3]; 3.0 mg/kg p.o., 5 h",5.33 ± 0.85 s
same,tail flick latency to radiant heat (dose dependence),"[3]; 0.1, 0.3, 1 and 3 mg/kg, 1, 2, 3 and 5 hours",non dose dependant reduction in tail flick latency
same,percentage of maximum protection (significance),[3]; all time intervals and all dose levels,statistically significant at all time intervals and at all dose levels
same,Percentage of anti-inflammatory activity at hour (h),"[4]; 1 mg/kg p.o., 0.5 h",16%
same,Change in volume (ml) at hour (h),"[4]; 1 mg/kg p.o., 0.5 h post carrageenan",0.148 ± 0.033 mL
same,Percentage of anti-inflammatory activity at hour (h),"[4]; 1 mg/kg p.o., 1 h",−8%
same,Change in volume (ml) at hour (h),"[4]; 1 mg/kg p.o., 1 h post carrageenan",0.186 ± 0.042 mL
same,Percentage of anti-inflammatory activity at hour (h),"[4]; 1 mg/kg p.o., 2 h",−7%
same,Change in volume (ml) at hour (h),"[4]; 1 mg/kg p.o., 2 h post carrageenan",0.312 ± 0.081 mL
same,Percentage of anti-inflammatory activity at hour (h),"[4]; 1 mg/kg p.o., 3 h",20%
same,Change in volume (ml) at hour (h),"[4]; 1 mg/kg p.o., 3 h post carrageenan",0.398 ± 0.092 mL
same,Percentage of anti-inflammatory activity at hour (h),"[4]; 1 mg/kg p.o., 5 h",14%
same,Change in volume (ml) at hour (h),"[4]; 1 mg/kg p.o., 5 h post carrageenan",0.549 ± 0.114 mL
same,Percentage of anti-inflammatory activity at hour (h),"[4]; 3 mg/kg p.o., 0.5 h",22%
same,Change in volume (ml) at hour (h),"[4]; 3 mg/kg p.o., 0.5 h post carrageenan",0.137 ± 0.038 mL
same,Percentage of anti-inflammatory activity at hour (h),"[4]; 3 mg/kg p.o., 1 h",27%
same,Change in volume (ml) at hour (h),"[4]; 3 mg/kg p.o., 1 h post carrageenan",0.126 ± 0.028 mL
same,Percentage of anti-inflammatory activity at hour (h),"[4]; 3 mg/kg p.o., 2 h",33%
same,Change in volume (ml) at hour (h),"[4]; 3 mg/kg p.o., 2 h post carrageenan",0.196 ± 0.056 mL
same,Percentage of anti-inflammatory activity at hour (h),"[4]; 3 mg/kg p.o., 3 h",66* %
same,Change in volume (ml) at hour (h),"[4]; 3 mg/kg p.o., 3 h post carrageenan",0.168 ± 0.11 mL
same,Percentage of anti-inflammatory activity at hour (h),"[4]; 3 mg/kg p.o., 5 h",44%
same,Change in volume (ml) at hour (h),"[4]; 3 mg/kg p.o., 5 h post carrageenan",0.354 ± 0.104 mL
same,Percentage of anti-inflammatory activity at hour (h),"[4]; 10 mg/kg p.o., 0.5 h",33%
same,Change in volume (ml) at hour (h),"[4]; 10 mg/kg p.o., 0.5 h post carrageenan",0.118 ± 0.027 mL
same,Percentage of anti-inflammatory activity at hour (h),"[4]; 10 mg/kg p.o., 1 h",17%
same,Change in volume (ml) at hour (h),"[4]; 10 mg/kg p.o., 1 h post carrageenan",0.143 ± 0.016 mL
same,Percentage of anti-inflammatory activity at hour (h),"[4]; 10 mg/kg p.o., 2 h",62%
same,Change in volume (ml) at hour (h),"[4]; 10 mg/kg p.o., 2 h post carrageenan",0.110 ± 0.018 mL
same,Percentage of anti-inflammatory activity at hour (h),"[4]; 10 mg/kg p.o., 3 h",59* %
same,Change in volume (ml) at hour (h),"[4]; 10 mg/kg p.o., 3 h post carrageenan",0.203 ± 0.032 mL
same,Percentage of anti-inflammatory activity at hour (h),"[4]; 10 mg/kg p.o., 5 h",58** %
same,Change in volume (ml) at hour (h),"[4]; 10 mg/kg p.o., 5 h post carrageenan",0.264 ± 0.035 mL
same,anti-inflammatory activity over time,"[4]; 10 mg/kg, all time intervals",almost consistent anti-inflammatory activity at all time intervals
same,Percentage of anti-inflammatory activity at hour (h),"[4]; 30 mg/kg p.o., 0.5 h",28%
same,Change in volume (ml) at hour (h),"[4]; 30 mg/kg p.o., 0.5 h post carrageenan",0.126 ± 0.027 mL
same,Percentage of anti-inflammatory activity at hour (h),"[4]; 30 mg/kg p.o., 1 h",−12%
same,Change in volume (ml) at hour (h),"[4]; 30 mg/kg p.o., 1 h post carrageenan",0.193 ± 0.024 mL
same,Percentage of anti-inflammatory activity at hour (h),"[4]; 30 mg/kg p.o., 2 h",27%
same,Change in volume (ml) at hour (h),"[4]; 30 mg/kg p.o., 2 h post carrageenan",0.214 ± 0.028 mL
same,Percentage of anti-inflammatory activity at hour (h),"[4]; 30 mg/kg p.o., 3 h",38%
same,Change in volume (ml) at hour (h),"[4]; 30 mg/kg p.o., 3 h post carrageenan",0.307 ± 0.020 mL
same,Percentage of anti-inflammatory activity at hour (h),"[4]; 30 mg/kg p.o., 5 h",30%
same,Change in volume (ml) at hour (h),"[4]; 30 mg/kg p.o., 5 h post carrageenan",0.443 ± 0.035 mL
same,degree of anti-inflammatory activity,"[4]; 30 mg/kg p.o., from 2-5 hour",around 30%
same,reduction in paw volume (dose dependence),"[4]; 1, 3 and 10 mg/kg, p.o., from 2 to 5 hour",dose dependant reduction in paw volume
same,reduction in paw volume compared to control (significance),"[4]; 3 and 10 mg/kg at 3 hours and 10 mg/kg at 5 hours, p<0.05",statistically significant reduction in paw volume
